Patent publication US5710244A, “Derivatized calcitonins” (priority 1993, dated 1998)

Tests used:
[1] = system: endogenous hamster calcitonin receptor; experiment: CRE-linked luciferase (cyclic AMP) induction in BHK cells expressing endogenous hamster calcitonin receptor; type: cell-based; conditions: EC50 as % of salmon calcitonin (SCT) EC50; CRE-luciferase, BHK cells, 4 h induction
Experimental: A BHK cell line expressing the endogenous hamster calcitonin receptor was transfected with plasmid KZ10-20-48 to provide the CRE-inducible luciferase receptor described above. The transfected cells were cultured in selective growth medium containing both 500 μg/mL G418-neomycin and 250 nM methotrexate.
Cells expressing the calcitonin receptor were assayed in triplicate for the induction of the CRE-linked luciferase response to salmon calcitonin (SCT) and derivatized calcitonins at concentrations ranging from 10^-13 M to 10^-6 M. MICROLITE flat bottom tissue culture plates (Baxter Scientific Products, Chicago, Ill.) were set up such that each well contained 2×10^4 cells in 100 μl of selection media, and the cells were grown overnight. SCT and GF43 were prepared at 2X the final assay concentration to give 10^-13 to 10^-6 M in growth medium. Induction was initiated by removing old medium from the wells and adding 100 μl of fresh growth medium and 100 μl of either 2X solution in triplicate sample wells. Uninduced luciferase levels were determined in triplicate wells to which 100 μl of DMEM containing 10% fetal calf serum was added. The plates were incubated for four hours at 37° C., 5% CO2 to allow induction of luciferase. Following induction, the media were removed, and the wells were washed once with 200 μl/well PBS. After the wash, 20 μl of a 1:5 dilution (in sterile water) of the stock Cell Culture Lysis Reagent (Luciferase Assay System, Promega Corp., Madison, Wis.) was added to each well, and the plates were incubated for 15 minutes at room temperature. The plates were transferred to a Labsystems Luminoskan microtiter luminometer (Labsystems Inc., Morton Grove, Ill.) which added 40 μl of Luciferase Assay Substrate (Luciferase Assay System, Promega), mixed the reaction for three seconds and integrated the luciferase signal for two seconds per well. The fold induction of luciferase for each compound was calculated as follows:
Fold induction=Induced signal-Uninduced signal Uninduced signal

serum calcium in mice = experiment: In vivo effect on serum calcium levels in mice; conditions: Swiss-Webster male mice, single subcutaneous injection, 100 ng/ml, 1 μg/ml, 10 μg/ml; 0, 1 and 4 hours; FIGS. 1 and 2
Experimental: The biological activity of bipyridine-calcitonin in vivo was measured as the ability of BP4,4 -CT to lower serum calcium in mice as compared to the action of salmon calcitonin. Six-week old Swiss-Webster male mice (12 to 18 grams) were given single, subcutaneous injections of BP4,4 -CT, salmon calcitonin or vehicle. Blood samples for serum calcium measurements were collected from orbital sinus punctures at timed intervals of 0, 1 and 4 hours after injection. Serum calcium was analyzed using a Dacos Excel Analyzer (Coulter Electronics Company, Hialeah, Fla.). The compounds were given at the following doses with eight mice randomly assigned to each of the following groups: […]

[2] = molecular target: T1, recombinant human calcitonin receptor (Homo sapiens, UniProt P30988); experiment: CRE-linked luciferase (cyclic AMP) induction in BHK/KZ10-20-48 cells expressing recombinant human calcitonin receptor; type: cell-based; conditions: for activity / potency compared with human calcitonin: text summary of the Table (hamster and human CT receptor); for % SCT EC50, Human CT receptor: EC50 as % of salmon calcitonin (SCT) EC50, CRE-luciferase, BHK/KZ10-20-48 cells, 4 h induction
T1 construct: expressed in transfected cells; host or cells: BHK/KZ10-20-48 (BHK cells carrying a CRE-luciferase reporter) transfected with pHOLLEX (ATCC 69067)
T1 sequence (P30988 25-474): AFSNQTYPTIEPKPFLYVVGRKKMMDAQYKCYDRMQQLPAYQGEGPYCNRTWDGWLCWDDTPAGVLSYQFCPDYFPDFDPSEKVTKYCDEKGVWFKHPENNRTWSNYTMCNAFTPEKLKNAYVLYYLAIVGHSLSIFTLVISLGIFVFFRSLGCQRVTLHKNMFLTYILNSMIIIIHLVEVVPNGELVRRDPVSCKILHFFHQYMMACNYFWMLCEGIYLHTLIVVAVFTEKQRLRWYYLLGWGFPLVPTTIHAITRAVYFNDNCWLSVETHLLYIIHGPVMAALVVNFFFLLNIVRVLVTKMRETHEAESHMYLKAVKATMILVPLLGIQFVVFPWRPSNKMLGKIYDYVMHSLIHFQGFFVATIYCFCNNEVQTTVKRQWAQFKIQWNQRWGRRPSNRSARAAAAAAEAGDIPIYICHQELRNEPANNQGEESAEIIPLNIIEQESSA
Experimental: BHK/KZ10-20-48 is a BHK cell line transfected with a plasmid containing a luciferase gene whose expression is dependent upon a cyclic AMP response element (CRE), which induces expression of downstream coding sequences in the presence of cyclic AMP. […] The vector without the calcitonin receptor was used to transfect the cell line BHK/KZ10-20-48 for a negative control. The transfectants were grown in a selective growth medium (Dulbecco's Modified Eagle Medium (DMEM) with 5% serum) containing both 500 μg/ml G418-neomycin and 250 nM methotrexate.
Cells expressing the calcitonin receptor were assayed in triplicate for the induction of the CRE-linked luciferase response to salmon calcitonin (SCT) and derivatized calcitonins at concentrations ranging from 10^-13 M to 10^-6 M. MICROLITE flat bottom tissue culture plates (Baxter Scientific Products, Chicago, Ill.) were set up such that each well contained 2×10^4 cells in 100 μl of selection media, and the cells were grown overnight. […] Induction was initiated by removing old medium from the wells and adding 100 μl of fresh growth medium and 100 μl of either 2X solution in triplicate sample wells. Uninduced luciferase levels were determined in triplicate wells to which 100 μl of DMEM containing 10% fetal calf serum was added. The plates were incubated for four hours at 37° C., 5% CO2 to allow induction of luciferase. Following induction, the media were removed, and the wells were washed once with 200 μl/well PBS. After the wash, 20 μl of a 1:5 dilution (in sterile water) of the stock Cell Culture Lysis Reagent (Luciferase Assay System, Promega Corp., Madison, Wis.) was added to each well, and the plates were incubated for 15 minutes at room temperature. The plates were transferred to a Labsystems Luminoskan microtiter luminometer (Labsystems Inc., Morton Grove, Ill.) which added 40 μl of Luciferase Assay Substrate (Luciferase Assay System, Promega), mixed the reaction for three seconds and integrated the luciferase signal for two seconds per well. The fold induction of luciferase for each compound was calculated as follows:

% SCT EC50, Hamster CT receptor [1] | activity / potency compared with human calcitonin [2] | % SCT EC50, Human CT receptor [2] | Compound | decrease of serum calcium levels (serum calcium in mice)
147% | greater activity than human calcitonin | – | ZP-9: DL-pipecolinic acid modified salmon calcitonin | –
– | – | 140% | CC(C)C[C@H](NC(=O)[C@H](CCCCN)NC(=O)CNC(=O)[C@H](CC(C)C)NC(=O)[C@@H](NC(=O)[C@@H]1CSSC[C@H](NC(=O)c2ccccn2)C(=O)N[C@@H](CO)C(=O)N[C@@H](CC(N)=O)C(=O)N[C@@H](CC(C)C)C(=O)N[C@@H](CO)C(=O)N[C@@H]([C@@H](C)O)C(=O)N1)C(C)C)C(=O)N[C@@H](CO)C(=O)N[C@@H](CCC(N)=O)C(=O)N[C@@H](CCC(=O)O)C(=O)N[C@@H](CC(C)C)C(=O)N[C@@H](Cc1c[nH]cn1)C(=O)N[C@@H](CCCCN)C(=O)N[C@@H](CC(C)C)C(=O)N[C@@H](CCC(N)=O)C(=O)N[C@H](C(=O)N[C@@H](Cc1ccc(O)cc1)C(=O)N1CCC[C@H]1C(=O)N[C@@H](CCCNC(=N)N)C(=O)N[C@H](C(=O)N[C@@H](CC(N)=O)C(=O)N[C@H](C(=O)NCC(=O)N[C@@H](CO)C(=O)NCC(=O)N[C@H](C(=O)N1CCC[C@H]1C(N)=O)[C@@H](C)O)[C@@H](C)O)[C@@H](C)O)[C@@H](C)O [ZP-6] | –
106% | greater activity than human calcitonin | – | ZP-8: isonipecotic acid modified salmon calcitonin | –
– | – | – | CC(C)C[C@H](NC(=O)[C@H](CCCCN)NC(=O)CNC(=O)[C@H](CC(C)C)NC(=O)[C@@H](NC(=O)[C@@H]1CSSC[C@H](N)C(=O)N[C@@H](CO)C(=O)N[C@@H](CC(N)=O)C(=O)N[C@@H](CC(C)C)C(=O)N[C@@H](CO)C(=O)N[C@@H]([C@@H](C)O)C(=O)N1)C(C)C)C(=O)N[C@@H](CO)C(=O)N[C@@H](CCC(N)=O)C(=O)N[C@@H](CCC(=O)O)C(=O)N[C@@H](CC(C)C)C(=O)N[C@@H](Cc1c[nH]cn1)C(=O)N[C@@H](CCCCN)C(=O)N[C@@H](CC(C)C)C(=O)N[C@@H](CCC(N)=O)C(=O)N[C@H](C(=O)N[C@@H](Cc1ccc(O)cc1)C(=O)N1CCC[C@H]1C(=O)N[C@@H](CCCNC(=N)N)C(=O)N[C@H](C(=O)N[C@@H](CC(N)=O)C(=O)N[C@H](C(=O)NCC(=O)N[C@@H](CO)C(=O)NCC(=O)N[C@H](C(=O)N1CCC[C@H]1C(N)=O)[C@@H](C)O)[C@@H](C)O)[C@@H](C)O)[C@@H](C)O [salmon calcitonin, reference compound] | equally decreased serum calcium levels in a dose-dependent manner
– | – | 112% | CC(C)C[C@H](NC(=O)[C@H](CCCCN)NC(=O)CNC(=O)[C@H](CC(C)C)NC(=O)[C@@H](NC(=O)[C@@H]1CSSC[C@H](NC(=O)c2cccnc2)C(=O)N[C@@H](CO)C(=O)N[C@@H](CC(N)=O)C(=O)N[C@@H](CC(C)C)C(=O)N[C@@H](CO)C(=O)N[C@@H]([C@@H](C)O)C(=O)N1)C(C)C)C(=O)N[C@@H](CO)C(=O)N[C@@H](CCC(N)=O)C(=O)N[C@@H](CCC(=O)O)C(=O)N[C@@H](CC(C)C)C(=O)N[C@@H](Cc1c[nH]cn1)C(=O)N[C@@H](CCCCN)C(=O)N[C@@H](CC(C)C)C(=O)N[C@@H](CCC(N)=O)C(=O)N[C@H](C(=O)N[C@@H](Cc1ccc(O)cc1)C(=O)N1CCC[C@H]1C(=O)N[C@@H](CCCNC(=N)N)C(=O)N[C@H](C(=O)N[C@@H](CC(N)=O)C(=O)N[C@H](C(=O)NCC(=O)N[C@@H](CO)C(=O)NCC(=O)N[C@H](C(=O)N1CCC[C@H]1C(N)=O)[C@@H](C)O)[C@@H](C)O)[C@@H](C)O)[C@@H](C)O [ZP-5] | –

Compound | % SCT EC50, Hamster CT receptor [1] | activity / potency compared with human calcitonin [2] | % SCT EC50, Human CT receptor [2] | decrease of serum calcium levels (serum calcium in mice)
ZP-1: salmon calcitonin N-terminally modified with 2,2'-bipyridine-4,4'-dicarboxylic acid | 73% | – | – | equally decreased serum calcium levels in a dose-dependent manner
